Test results published in PMC11241262, “Unravelling the Antifibrinolytic Mechanism of Action of the 1,2,3-Triazole Derivatives” (International Journal of Molecular Sciences, 2024).

Columns and labels:
[1] = target: T1, tissue-type plasminogen activator (tPA) (Homo sapiens, UniProt P00750); assay: tPA activity assay (chromogenic substrate); format: biochemical; conditions: for activity on tPA's active site: at the tested concentrations
T1 construct: purchased abcam
Method: Tris hydrochloride, 1M, pH = 7.5 solution (Thermo Fisher Scientific, Waltham, MA, USA) was used as buffer. […] Recombinant human Tissue Plasminogen Activator (abcam, Cambridge, UK) served as the source of tPA, and was stored at −20 °C until used.
The assay measures the inhibition of tPA’s catalytic domain by the tested compounds employing a chromogenic substrate. Different concentrations of the studied molecules were incubated with tPA in a 96-well plate at 37 °C for 10 min. […] After, 20 μL of tPA’s substrate was added to each well. […] The slope for each assay was obtained from the initial and final absorbance values and their respective time points, or until complete substrate cleavage was achieved. (3) Absorbance slope=Abs2−Abs1/t2−t1
The Relative tPA Inhibition for each condition was calculated using Equation (2). Then, the Relative tPA Activity (%) was calculated by subtracting the relative tPA inhibition of each concentration from the total activity of the enzyme, obtained from a control without a compound.

[2] = ref [28],[29],[35]; cited from earlier work
[3] = test system: whole blood clot formation; assay: Whole blood coagulation assay (clot formation, no exogenous tPA); set-up: species or system human; conditions: 40 µM, 37 °C, fibrinolysis not triggered
Method: (§1) Blood was obtained by venipuncture from healthy donors after they signed an informed consent form. Blood was transferred into vacuum non-anticoagulant Vacutainer® tubes (BD, Franklin Lakes, NJ, USA). Blood samples were immediately used for the assay after extraction.
Prior to blood addition, 20 µL of the evaluated compounds was added to glass tubes, in a final concentration of 40 µM. As a control clot, 20 µL of Tris HCl buffer with no compound was used. Next, 800 µL of blood was transferred to each tube followed by casual shaking to ensure proper mixing. Tubes were incubated at 37 °C for 30 min to allow clot formation and posterior lysis. Blood clotting and lysis were visually monitored and photographs were taken after 30 min.

[4] = mostly cardiac surgery patients; ref [21],[29],[36],[37],[38]; cited from earlier work
plasmin = target: T2, plasmin (Homo sapiens, UniProt P00747); assay: Plasmin activity assay (Plasmin Inhibitor Screening Assay Kit); format: biochemical; conditions: for inhibition at 500 µM: 0.5 mM; for inhibition at 5000 µM: 5 mM; for inhibition at 10000 µM: 10 mM; for inhibition at 15000 µM: 15 mM; for inhibition at 20000 µM: 20 mM; for inhibition at 30000 µM: 30 mM; for increase of IC50 of plasmin's catalytic domain compared to IC50 in plasma clot lysis assay: plasma clot lysis IC50 from Bosch-Sanz et al. [43]
T2 construct: purchased abcam
T2 sequence (P00747 97-580 limits assumed): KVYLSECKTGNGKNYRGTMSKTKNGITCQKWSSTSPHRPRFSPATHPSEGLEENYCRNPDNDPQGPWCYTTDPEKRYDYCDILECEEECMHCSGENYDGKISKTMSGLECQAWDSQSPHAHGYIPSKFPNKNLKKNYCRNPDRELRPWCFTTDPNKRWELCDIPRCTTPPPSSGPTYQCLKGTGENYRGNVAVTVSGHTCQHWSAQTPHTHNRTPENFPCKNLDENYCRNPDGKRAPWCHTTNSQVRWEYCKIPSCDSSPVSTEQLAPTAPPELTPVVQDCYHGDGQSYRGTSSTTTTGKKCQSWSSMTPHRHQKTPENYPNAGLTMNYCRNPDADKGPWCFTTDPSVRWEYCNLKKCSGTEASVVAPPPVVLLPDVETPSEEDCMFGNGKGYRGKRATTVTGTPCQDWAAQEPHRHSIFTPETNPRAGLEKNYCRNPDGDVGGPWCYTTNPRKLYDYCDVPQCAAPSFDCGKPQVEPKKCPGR
T2 sequence (P00747 581-810 limits assumed): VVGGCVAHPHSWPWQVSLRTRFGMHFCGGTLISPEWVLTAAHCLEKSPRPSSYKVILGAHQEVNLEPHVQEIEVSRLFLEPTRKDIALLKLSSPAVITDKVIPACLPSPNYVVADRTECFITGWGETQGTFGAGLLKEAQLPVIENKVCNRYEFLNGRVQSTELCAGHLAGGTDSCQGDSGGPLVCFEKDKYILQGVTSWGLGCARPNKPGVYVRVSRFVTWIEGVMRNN
Method: The potential activity of the studied compounds on the catalytic domain of plasmin was evaluated using the Plasmin Inhibitor Screening Assay Kit (abcam), following the manufacturer’s instructions. Briefly, the assay measures the inhibition of plasmin’s activity by the tested compounds through the cleavage of a fluorogenic peptide substrate. The assay was performed in flat-bottom 96-well plates. Plasmin was pre-incubated with different concentrations of the tested compounds for 10 min at RT prior to the addition of the peptide substrate. Plasmin’s activity was then measured by monitoring the increase in fluorescence intensity over time using a microplate reader (Infinite M Plex, Tecan, Männedorf, Switzerland) at an Ex/Em of 360/450 nm, every minute at 37 °C for 10 min. The slope of each sample was determined using the initial and final fluorescence values and their respective time points. (1) Fluorescence slope=RFU2−RFU1/t2−t1
The Relative Plasmin Inhibition was calculated according to the manufacturer’s instructions using a control slope with no compound (enzyme control):(2) Relative Plasmin Inhibition%=SlopeControl−SlopeCompound/SlopeControl×100

plasminogen = target: T3, plasminogen (Homo sapiens, UniProt P00747); assay: Plasminogen activation assay (conversion of plasminogen into plasmin by tPA in the absence of fibrin); format: biochemical; conditions: for concentration at which compound increased tPA's activity by 50%: plasminogen-tPA isolated system, absence of fibrin
T3 construct: purchased abcam
T3 sequence (P00747 20-810 limits assumed): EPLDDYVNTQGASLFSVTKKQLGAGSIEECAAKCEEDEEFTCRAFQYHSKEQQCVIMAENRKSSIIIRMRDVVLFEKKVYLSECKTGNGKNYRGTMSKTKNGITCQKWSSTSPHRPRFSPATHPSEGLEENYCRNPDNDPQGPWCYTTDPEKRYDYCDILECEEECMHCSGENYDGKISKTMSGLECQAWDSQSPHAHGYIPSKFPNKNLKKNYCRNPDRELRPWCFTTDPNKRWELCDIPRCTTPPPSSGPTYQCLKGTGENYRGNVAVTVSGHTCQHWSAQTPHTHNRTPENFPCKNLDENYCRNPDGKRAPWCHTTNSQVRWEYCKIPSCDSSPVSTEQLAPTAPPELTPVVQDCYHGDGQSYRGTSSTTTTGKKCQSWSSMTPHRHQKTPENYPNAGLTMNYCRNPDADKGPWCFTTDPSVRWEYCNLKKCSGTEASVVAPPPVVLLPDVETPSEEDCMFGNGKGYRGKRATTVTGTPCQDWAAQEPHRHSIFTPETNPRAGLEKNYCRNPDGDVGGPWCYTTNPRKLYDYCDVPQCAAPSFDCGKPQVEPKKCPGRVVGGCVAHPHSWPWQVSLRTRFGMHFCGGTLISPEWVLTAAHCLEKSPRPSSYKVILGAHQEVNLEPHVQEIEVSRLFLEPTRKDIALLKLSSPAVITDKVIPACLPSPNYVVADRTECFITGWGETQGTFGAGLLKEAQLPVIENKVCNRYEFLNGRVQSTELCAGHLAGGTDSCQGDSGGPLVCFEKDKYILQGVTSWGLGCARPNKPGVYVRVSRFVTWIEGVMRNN
Method: The conversion rate of plasminogen to plasmin was assessed using the Tissue-Type Plasminogen Activator Activity Assay Kit (abcam), following the manufacturer’s instructions. The assay measures the ability of tPA to activate plasminogen to plasmin in the presence of the tested compounds using a chromogenic substrate.
A solution of plasminogen and plasmin substrate was mixed with a previously prepared solution of the studied compound and tPA in Tris HCl buffer in a 96-well plate. The final concentration of tPA in each well was 6.8 µg/mL, in a final volume of 100 µL. Absorbance was measured on a microplate reader at a wavelength of 405 nm every minute at 37 °C for 2 h or until the system reached saturation. The absorbance slope of each sample was determined using Equation (3). The Relative Plasminogen Activation (%) for each condition was calculated with Equation (4), using a control without a compound (enzyme control). (4) Relative Plasminogen Activation (%)=SlopeCompound−SlopeControl/SlopeControl×100
Values were fitted to a linear model using MATLAB R2023a (The Math Works Inc., Natick, MA, USA). Concentrations at which each compound was able to increase plasminogen’s conversion by 50% in comparison to the enzyme control were extracted and compared for the three molecules.

whole blood clots [5] = assay: Whole blood dosage (effective antifibrinolytic dosage, tPA-triggered clot lysis); set-up: species or system human; conditions: 10 µg/mL tPA, 37 °C
Method: as §1
Glass tubes were prepared with 20 µL of a mixture of tPA, in a final concentration of 10 µg/mL, and the evaluated compounds, in a final concentration of 10, 20, 40, or 60 µM in Tris HCl buffer. A control clot was obtained with 20 µL of tPA with no compound. Then, 800 µL of blood was transferred to each tube and tubes were monitored for clot formation and lysis. The assay was performed with casual shaking. […] The ex vivo effective dosage for each compound was determined by their ability to inhibit complete clot degradation. Photographs were taken after 24 h of incubation.

whole blood clots [6] = assay: Whole blood clot lysis assay (D-dimer ELISA); set-up: species or system human; conditions: 20 µM, 10 µg/mL tPA
Method: as §1
The quantification of D-dimer released during clot lysis was performed using the human D-dimer ELISA kit (Thermo Fisher Scientific). Directly after extraction, 500 µL of blood was transferred to four different glass tubes and allowed to clot for 10 min at 37 °C. Tubes were incubated at 37 °C for an additional 1 h to enable clot retraction from the walls of the glass tubes [53]. Then, 100 µL of a mixture of tPA and the studied compounds was added on top of each clot. […] As a control clot, 100 µL of tPA without compound in Tris HCl buffer was added. Tubes were incubated at 37 °C and, at time points of 5 min, 2, 4, 7, and 24 h, samples of each tube were extracted for D-dimer quantification. After gentle shaking of the tubes, 5 µL of the supernatant from each tube was pipetted into Eppendorf tubes and stored at −20 °C until assayed. The ELISA assay was performed as described by the manufacturer’s instructions and absorbance was read in a microplate reader at the wavelengths of 450 nm and 550 nm. […]

[7] = read-out: percentage of plasmin's inhibition

T1 sequence (P00750 36-562): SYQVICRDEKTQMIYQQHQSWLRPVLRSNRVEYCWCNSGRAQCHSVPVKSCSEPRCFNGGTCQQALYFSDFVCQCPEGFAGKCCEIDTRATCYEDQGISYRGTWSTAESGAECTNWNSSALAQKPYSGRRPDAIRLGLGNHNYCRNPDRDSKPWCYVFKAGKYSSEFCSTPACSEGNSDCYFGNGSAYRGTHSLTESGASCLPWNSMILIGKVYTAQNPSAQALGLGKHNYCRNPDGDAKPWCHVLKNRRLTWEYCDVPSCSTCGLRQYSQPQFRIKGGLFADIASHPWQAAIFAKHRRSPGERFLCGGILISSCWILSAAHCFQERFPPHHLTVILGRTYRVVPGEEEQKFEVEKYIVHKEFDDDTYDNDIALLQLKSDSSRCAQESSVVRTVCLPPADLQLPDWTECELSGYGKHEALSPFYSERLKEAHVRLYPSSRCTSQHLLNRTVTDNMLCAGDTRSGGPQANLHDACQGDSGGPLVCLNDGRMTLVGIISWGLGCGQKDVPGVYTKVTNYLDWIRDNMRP

SMILES | percentage of tPA's activity ([1]; 0.5 mM) [%] | percentage of tPA's activity ([1]; 1 mM) [%] | percentage of tPA's activity ([1]; 5 mM) [%] | percentage of tPA's activity ([1]; 10 mM) [%] | percentage of tPA's activity ([1]; 15 mM) [%] | activity on tPA's active site [1] | effect on clot formation [3] | inhibition at 500 µM (plasmin; [7]) [%] | inhibition at 5000 µM (plasmin; [7]) [%] | inhibition at 10000 µM (plasmin; [7]) [%] | inhibition at 15000 µM (plasmin; [7]) [%] | inhibition at 20000 µM (plasmin; [7]) [%] | inhibition at 30000 µM (plasmin; [7]) [%] | increase of IC50 of plasmin's catalytic domain compared to IC50 in plasma clot lysis assay (plasmin) [fold] | concentration at which compound increased tPA's activity by 50% (plasminogen) [µM] | effective dosage (concentration preventing complete clot degradation after 24 h) (whole blood clots [5]) [µM] | further results
NC[C@H]1CC[C@H](C(=O)O)CC1 [TXA, tranexamic acid, reference compound] | 92.08 | 89.90 | 87.18 | 87.33 | 84.84 | no activity | do not have any effect | 2.61 | 12.3 | 22.4 | 28 | 29.1 | 53.1 | 1000 | 283.01 | 60 | cerebrospinal fluid concentration as share of plasma concentration [2]: approximately 10%; increased incidence of postoperative seizures [4]: 7 fold; inhibition at 50000 µM (plasmin; 50 mM, read-out: percentage of plasmin's inhibition): 59.2%
O=c1[nH]c(-c2cn(C3CCNCC3)nn2)no1 [compound 1] | 96.53 | 94.21 | 96.95 | 91.20 | 101.89 | no activity | do not have any effect | 0.56 | 4.3 | 7.36 | 11.6 | 48 | 76.6 | 1000 | 4.67 | 10 | IC50 (plasmin; inhibition of plasmin's cleavage of a synthetic substrate by 50%): 20.6 ± 0.78 mM; potency relative to TXA in catalyzing plasminogen's activation by tPA (plasminogen; from concentration enhancing tPA's activity by 50%): more than 50 times; improvement in antifibrinolytic activity over TXA (D-dimer quantification) (whole blood clots [6]; whole blood): more than 2 fold; D-dimer release lower than for compound 5 (whole blood clots [6]; timepoint 24 h): around 35%
